The source of these data is patent publication US11497793B2, “Compositions and methods for treating glioblastoma” (TEL HASHOMER MEDICAL RESEARCH INFRASTRUCTURE AND SERVICES …, priority 2018, dated 2022).

The star is where a group is joined. Tos = Cc1ccc(S(=O)(=O)*)cc1; CH2Cl = ClC*

In one assay the test system is CNS-1 glioma cell line. Put plainly: Glioma cell proliferation measured by XTT. The class given is cell-based, rat. As to conditions: CNS-1 cells, 72 hours, TMZ 500 μM, SIXAC 10 μM, alone or combined. The method, then:
The following experiment tested the effect of the chemotherapeutic drug temozolomide (“TMZ”) in combination with the peptide conjugate Tosyl-ATLDPR-chloromethylketone (tosyl-SEQ ID NO: 3-CMK) on the proliferation of glioma cells. The peptide conjugate contains 6 amino acids from the N-terminus of PAR-1: ATLDPR (SEQ ID NO: 3), and is denoted herein as “SIXAC”.
In particular, CNS-1 glioma cell line (rat) was treated with either TMZ (500 μM), SIXAC (10 μM) or a combination of TMZ (500 μM) and SIXAC (10 μM) for 72 hours. Proliferation was measured by means of XTT in comparison to non-treated cells (control).
In general terms: Tetrazolium dyes change colour on reduction, which living cells bring about.

The test system of another assay is CNS-1 brain tumor. The assay can be described thus: Survival in an animal model of GBM (CNS-1 cells injected into parietal cortex, intratumoral osmotic pump). The class given is in vivo. As to conditions: rat GBM model; osmotic pump into tumor for 14 days; TMZ 2 mg/rat, SIXAC 6.9 μg/rat (20 μg/kg/day); monitored until Day 25. As to the method:
CNS-1 cells ([…]) were injected using stereotactic methods into the parietal cortex of rats (n=20, 16 rats survived the surgery).
Five days later (Day 5) the brains of the rats that survived the surgery were examined by MRI and the tumors scored on a scale of 1-3. For each rat, a catheter was placed in the brain tumor and attached to an osmotic pump (Alzet®) releasing one of the following treatments ([…], for 14 days): TMZ 2 mg/rat (n=7), or TMZ 2 mg/rat and SIXAC 6.9 μg/rat (20 μg/kg/day) (n=7) (TMZ was dissolved in saline and 0.1M acetate buffer pH5) (50:50 v/v ratio).
The groups were monitored daily for survival until Day 25.

For the next assay, the system named is PAR-1. Put plainly: Western blot of PAR-1 level in glioma cells. As to conditions: CNS-1 cells, 24 h; TMZ 500 μM, SIXAC 10 μM, alone or combined; vs FCS-free medium with 0.2% DMSO. The class given is cell-based, rat. The method, then: (§1) More particularly, the expression of two proteins, PAR-1 and phosphorylated extracellular signal-regulated kinase (pERK), was examined in glioma cells incubated with TMZ, SIXAC or a combination of TMZ+SIXAC.
(§2) CNS-1 rat glioma cells were grown in Dulbecco's modified Eagle's medium (DMEM; Bet Haemek, Biological Industries, Israel) supplemented with 10% fetal bovine serum (Bet Haemek, Biological Industries, Israel) and 1% penicillin and streptomycin in a 5% CO2-humidified atmosphere.
(§3) CNS-1 cells were seeded and incubated for 24 h. Then the medium was replaced by FCS-free medium for additional 24 h. Next, the cells were treated for 24 h with SIXAC (10 μM), TMZ (500 μM), a combination of TMZ (500 μM) and SIXAC (10 μM) or a FCS-free medium (containing 0.2% DMSO) which was used as a control (n=4 for each treatment group). The cells were then washed with ice-cold PBS and lysed in RIPA buffer (containing in mM: 50 TRIS HCl pH 8, 150 NaCl, 1% NP-40, 0.5% sodium deoxycholate, and 0.1% SDS), a protease inhibitor cocktail (Merck Millipore 539134, 1:100), 0.1 mM sodium orthovanadate and 2 mM PMSF. The cells were scraped, collected and centrifuged (16,000 g×20 min) at 4° C. The supernatants were collected, and protein concentration was determined by means of a bicinchoninic acid (BCA) assay.
In general terms: Immunoblotting shows a protein as a band on a membrane.

Assay [1] concerns phosphorylated extracellular signal-regulated kinase (pERK). The assay can be described thus: Western blot of pERK level in glioma cells. As to conditions: CNS-1 cells, 24 h; TMZ 500 μM, SIXAC 10 μM, alone or combined; vs FCS-free medium with 0.2% DMSO. The class given is cell-based, rat. As to the method:
as §1, §2, §3

A further assay has as its system C6 rat glioma cells. Put plainly: Scratch (wound healing) assay of glioma cell migration. As to conditions: 4 h of incubation, SIXAC 1 μM, TMZ 100 μM, alone or combined. The class given is cell-based. The method, then:
C6 rat glioma cells were grown in Dulbecco's modified Eagle's medium (DMEM; Bet Haemek, Biological Industries, Israel) supplemented with 10% fetal bovine serum (Bet Haemek, Biological Industries, Israel) and 1% penicillin and streptomycin in a 5% CO2-humidified atmosphere.
The effect of TMZ and SIXAC on the coordinated movement of C6 glioma cells was evaluated using a wound healing assay. The cells were seeded in 24-well plates at a density of 5×10^4 cells/well. Cells were cultured in FCS-free medium for 24 h. A wound was established by scraping using 10 μl pipette tip. Cells were washed twice with warm PBS and then fresh FCS-free medium was added, containing SIXAC (1 μM), TMZ (100 μM) or a combination of SIXAC and TMZ. Wells with FCS-free medium only or FCS-free medium+DMSO 0.2% were used as controls (marked as “control” and “control+DMSO”) Image acquisition of wound gap closure (%) was carried out following 4 h of incubation using a Nikon Eclipse microscope Images were analyzed using Fiji software.

For the compound `Cn1nnc2c(C(N)=O)ncn2c1=O` [TMZ, temozolomide, reference compound], in the assay on CNS-1 glioma cell line, the “cell proliferation compared to non-treated cells (control)” value is listed as “no significant effect”. The compound also gave a Median survival in the assay on CNS-1 brain tumor of 14 days.

As to “tosyl-Ala-Thr-Leu-Asp-Pro-Arg-chloromethylketone (Tos-ATLDPR-CH2Cl; SMILES Cc1ccc(S(=O)(=O)N[C@@H](C)C(=O)N[C@H](C(=O)N[C@@H](CC(C)C)C(=O)N[C@@H](CC(=O)O)C(=O)N2CCC[C@H]2C(=O)N[C@@H](CCCNC(=N)N)C(=O)CCl)[C@@H](C)O)cc1) [SIXAC, peptide conjugate containing 6 amino acids from the N-terminus of PAR-1 with tosyl and chloromethylketone moieties]”, in the assay on CNS-1 glioma cell line, the “cell proliferation compared to non-treated cells (control)” value is reported as “minor effect”. Besides, the PAR1 expression entry in the assay on PAR-1 is on record as “did not cause any significant change”. The pERK expression result in assay [1] is on record as “did not cause any significant change”. Besides, the wound-closure percentage result in the assay on C6 rat glioma cells was “significantly decrease”.
